Assay results: publication PMC11272085, “Steroid Drugs Inhibit Bacterial Respiratory Oxidases and Are Lethal Toward Methicillin-Resistant Staphylococcus aureus” (The Journal of Infectious Diseases, 2024)
Values after ≈ are worked out from the molar mass of the structure shown. Values joined by “and” are separate entries in the source; they are usually repeats but may differ in a detail not shown here. Identical values can stand only once. “Also recorded” adds a separate entry of the source. Like-named read-outs stand apart in the source and are kept apart here. No end group written: not given here.

Assays:
[1] = system: MRSA bd-only strain; assay: Growth assay, MRSA USA300 bd-only strain; settings: Staphylococcus aureus, read-out: IC50 growth
Text: (§1) The methicillin-resistant Staphylococcus aureus (MRSA) strain used is the well-characterized USA300 LAC isolate [27], a community-associated MRSA strain isolated from the Los Angeles County Jail. All MRSA mutant strains were generated by phage transduction of the relevant transposon mutant from the Nebraska Transposon Mutant Library [28] into strain USA300 LAC using methods described previously [29], generating clean insertions in the loci of interest and conferring erythromycin resistance. For the purposes of this article, the MRSA qoxA::Tn strain will be referred to as “bd-only” while the cydA::Tn strain will be referred to as “aa3-only.”
(§2) Starter cultures were grown in 10 mL Luria–Bertani (LB) (E. coli) or 10 mL Tryptic Soy Broth (TSB) medium (MRSA) in sterile 50 mL conical flasks at 180 rpm and 37°C, until stationary phase was reached, and were used to inoculate 50 mL of fresh growth medium in 250 mL conical flasks. M9 minimal medium was used for E. coli (16 g/L Na2HPO4.2H2O, 3 g/L KH2PO4, 0.5 g/L NaCl, 1 g/L NH4Cl, 0.24 g/L MgSO4, 0.01 g/L CaCl2, 0.1% casamino acids, and 2% glycerol), and TSB medium was used for MRSA. […] Cells were grown in a FLUOstar Omega plate reader at double orbital pattern setting with readings being taken 300 seconds apart.

[2] = system: E. coli bo′-only strain; assay: Growth assay, E. coli EC958 bo′-only strain; settings: Escherichia coli, read-out: IC50 growth
Text: as §1, §2

[3] = system: vancomycin-resistant Enterococcus faecium; design: method as in PMID 28190396; settings: previous screen ref 31; cited from earlier work
[4] = system: MRSA USA300 WT; assay: Growth assay, MRSA USA300 WT
Method: (§3) Starter cultures were grown in 10 mL Luria–Bertani (LB) (E. coli) or 10 mL Tryptic Soy Broth (TSB) medium (MRSA) in sterile 50 mL conical flasks at 180 rpm and 37°C, until stationary phase was reached, and were used to inoculate 50 mL of fresh growth medium in 250 mL conical flasks. M9 minimal medium was used for E. coli (16 g/L Na2HPO4.2H2O, 3 g/L KH2PO4, 0.5 g/L NaCl, 1 g/L NH4Cl, 0.24 g/L MgSO4, 0.01 g/L CaCl2, 0.1% casamino acids, and 2% glycerol), and TSB medium was used for MRSA. […] Greiner F-bottom sterile 96-well plates were prepared by adding 100 µL of a 2× concentrated growth medium, 61.7 µL sterile milliQ H2O, 5 µL of the drug, and 33.3 µL of cell culture (final optical density at 600 nm [OD600] of ∼ 0.1). Cells were grown in a FLUOstar Omega plate reader at double orbital pattern setting with readings being taken 300 seconds apart.

[5] = system: E. coli bd-I-only strain; assay: Growth assay, E. coli EC958 bd-I-only strain; settings: Escherichia coli, read-out: IC50 growth
Text: as §1, §2

[6] = target: T1, succinate dehydrogenase (Escherichia coli, UniProt P07014+P0AC41+P0AC44+P69054); assay: Succinate dehydrogenase assay, E. coli bd-I-only membranes; format: biochemical
T1 construct: endogenous in cells; host or cells: E. coli EC958 bd-I-only mutant (ΔcyoA appCB::Cm), isolated cell membranes
Method: The method used for the succinate dehydrogenase assay is an adaptation of Kolaj-Robin et al. 2011 [6]. A 1 mL mixture was prepared with a final concentration of 400 μM phenazine methosulfate (PMS), 8 mM succinate, 50 mM Tris-HCL (pH 8.5) buffer, 0.02 % n-dodecyl-β-D-maltoside, 2.5% drug, 500 µg/mL of bacteria membranes and 50 μM of dichlorophenolindophenol (added last). The phenazine methosulfate, succinate and membranes were first preincubated for 30 min at 37 °C before being added to the remaining mixture. To start the reaction, 50 μM of dichlorophenolindophenol was added that produced a starting OD600 that ranged from 0.8 to 1. Spectrakinetics were recorded on a Cary 60 spectrophotometer for 15 min.
Supplementary Figure S3. Succinate dehydrogenase (SDH) E. coli membrane assay with quinestrol. The activity of SDH was expressed as a percentage of the DMSO only control. Data represent the means of three repeats and error bars represent the standard deviation.

[7] = target: T2, E. coli cytochrome bd-I (Escherichia coli, UniProt P0ABJ9); assay: Oxygen consumption assay (oxygen electrode), E. coli EC958 bd-I-only membranes; settings: for Inhibition of oxygen consumption / Effect on oxygen consumption (in words): 100 µM drug; for Inhibition of oxygen consumption / IC50: 8 mM succinate; for Inhibition of oxygen consumption: 500 µg/mL membranes; for IC50: IC50 oxygen consumption; for IC50 / Effect on oxygen consumption (in words): E. coli bd-I-only membranes
T2 sequence (P0ABK2 whole entry, one chain of several): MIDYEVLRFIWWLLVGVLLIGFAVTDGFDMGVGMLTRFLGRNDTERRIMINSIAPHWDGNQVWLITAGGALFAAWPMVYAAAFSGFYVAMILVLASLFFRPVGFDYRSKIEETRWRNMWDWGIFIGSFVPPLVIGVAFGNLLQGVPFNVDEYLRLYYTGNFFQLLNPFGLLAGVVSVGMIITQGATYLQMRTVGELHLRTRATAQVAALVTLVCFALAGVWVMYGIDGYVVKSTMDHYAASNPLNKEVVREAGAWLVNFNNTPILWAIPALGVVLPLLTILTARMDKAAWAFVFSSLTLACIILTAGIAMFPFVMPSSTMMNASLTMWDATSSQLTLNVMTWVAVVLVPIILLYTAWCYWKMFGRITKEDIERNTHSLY
T2 sequence (A5A618 whole entry, one chain of several, further chain): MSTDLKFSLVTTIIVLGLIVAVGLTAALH
T2 sequence (P56100 whole entry, one chain of several, further chain): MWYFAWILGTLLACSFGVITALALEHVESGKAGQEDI

[8] = system: gram-negative species; design: method as in PMID 28190396; settings: previous screen ref 31; cited from earlier work
[9] = system: E. coli bo′-only cells; assay: Viability assay, E. coli bo′-only; settings: data not shown
[10] = system: MRSA aa3-only cells; assay: microbe, parasite or virus in culture; settings: Staphylococcus aureus, 3 h, read-out: LC50 (median lethal concentration)
Method: (§4) Viability assays were performed essentially as described by Webster et al [22]. In brief, E. coli EC958 was grown overnight in 10 mL LB medium and was used to inoculate M9 medium. MRSA cells were grown in TSB medium throughout. Twenty microliters of each drug was added to the wells of row A of a 96-well plate followed by 180 µL of cells (OD600 of 0.1). Cells were exposed to drug for 3 hours at 37°C. Following drug exposure, serial dilutions were performed in 1× phosphate-buffered saline (pH 7.4) before being spotted onto LB agar plates overnight to determine changes in cell growth. Six repeats were performed for each concentration of drug, which included 2 biological repeats and 3 technical repeats of each.

[11] = system: E. coli WT cells; assay: Viability assay, E. coli WT; settings: 3 hours exposure
Method: as §4

[12] = system: MRSA aa3-only strain; assay: Growth assay, MRSA USA300 aa3-only strain; settings: Staphylococcus aureus, read-out: IC50 growth
Text: as §1, §2

[13] = system: E. coli EC958 WT; assay: Growth assay, E. coli EC958 WT; settings: Escherichia coli, EC958WT, read-out: IC50 growth
Method: as §3

[14] = system: MRSA WT cells; assay: microbe, parasite or virus in culture; settings: Staphylococcus aureus, 3 h, read-out: LC50 (median lethal concentration)
Method: as §4

[15] = target: MRSA cytochrome bd (Staphylococcus aureus, UniProt A0A0H2XF42); assay: Oxygen consumption assay, MRSA bd-only membranes; settings: read-out: IC50 oxygen consumption; MRSA bd-only membranes 1 mg/mL, 500 µM NADH
[16] = system: MRSA bd-only cells; assay: microbe, parasite or virus in culture; settings: Staphylococcus aureus, 3 h, read-out: LC50 (median lethal concentration)
Method: as §4

[17] = system: MRSA; design: method as in PMID 28190396; settings: previous screen ref 31; cited from earlier work
[18] = system: E. coli bd-I-only cells; assay: Viability assay, E. coli bd-I-only; format: cell-based, Escherichia coli; settings: data not shown
[19] = system: Mycobacterium smegmatis bd-only strain; design: method as in PMID 31939065; settings: ATP assays, M. smegmatis bd-only strain ref 40; cited from earlier work
[20] = target: T3, E. coli cytochrome bd-I (Escherichia coli, UniProt P0ABJ9); settings: peptides that bind to E. coli cytochrome bd-I ref 33, 34, 35; cited from earlier work
T3 construct: endogenous in cells; host or cells: E. coli EC958 (O25:H4-ST131) bd-I-only mutant (ΔcyoA appCB::Cm), isolated cell membranes
T3 sequence (P0ABJ9 whole entry, looked up): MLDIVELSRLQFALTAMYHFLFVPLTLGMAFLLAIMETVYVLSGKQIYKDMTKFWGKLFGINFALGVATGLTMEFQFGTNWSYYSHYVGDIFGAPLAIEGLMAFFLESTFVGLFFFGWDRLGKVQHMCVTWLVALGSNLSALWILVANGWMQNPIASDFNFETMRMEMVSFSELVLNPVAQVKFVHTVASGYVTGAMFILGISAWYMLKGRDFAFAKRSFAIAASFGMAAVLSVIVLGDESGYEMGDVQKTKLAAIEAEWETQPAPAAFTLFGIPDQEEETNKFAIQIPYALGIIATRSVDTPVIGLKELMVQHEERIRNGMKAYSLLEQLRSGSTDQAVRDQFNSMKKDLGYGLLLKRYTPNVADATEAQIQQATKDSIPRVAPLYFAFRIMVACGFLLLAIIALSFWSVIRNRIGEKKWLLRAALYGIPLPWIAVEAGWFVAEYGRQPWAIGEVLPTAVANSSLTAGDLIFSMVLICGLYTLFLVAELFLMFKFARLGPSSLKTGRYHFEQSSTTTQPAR

[21] = target: T2, E. coli cytochrome bd-I; design: endogenous in cells; host or cells: E. coli EC958 (O25:H4-ST131) bd-I-only mutant (ΔcyoA appCB::Cm), isolated cell membranes; settings: peptides that bind to E. coli cytochrome bd-I ref 33, 34, 35; cited from earlier work

Chain of MRSA cytochrome bd (A0A0H2XF42 entry or part of it): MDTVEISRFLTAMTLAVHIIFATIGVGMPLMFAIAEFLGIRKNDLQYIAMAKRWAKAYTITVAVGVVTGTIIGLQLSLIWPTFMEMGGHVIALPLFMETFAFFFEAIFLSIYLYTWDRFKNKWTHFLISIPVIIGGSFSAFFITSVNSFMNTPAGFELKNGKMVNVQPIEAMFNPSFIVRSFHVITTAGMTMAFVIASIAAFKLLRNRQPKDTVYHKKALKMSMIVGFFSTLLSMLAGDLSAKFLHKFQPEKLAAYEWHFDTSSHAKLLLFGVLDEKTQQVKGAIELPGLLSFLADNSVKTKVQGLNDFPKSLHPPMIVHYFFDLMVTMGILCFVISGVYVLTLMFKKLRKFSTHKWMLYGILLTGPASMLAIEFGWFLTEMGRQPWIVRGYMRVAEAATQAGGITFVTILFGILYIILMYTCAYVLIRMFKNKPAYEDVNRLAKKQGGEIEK
Chain of MRSA cytochrome bd (A0A0H2XJA4 entry or part of it, further chain): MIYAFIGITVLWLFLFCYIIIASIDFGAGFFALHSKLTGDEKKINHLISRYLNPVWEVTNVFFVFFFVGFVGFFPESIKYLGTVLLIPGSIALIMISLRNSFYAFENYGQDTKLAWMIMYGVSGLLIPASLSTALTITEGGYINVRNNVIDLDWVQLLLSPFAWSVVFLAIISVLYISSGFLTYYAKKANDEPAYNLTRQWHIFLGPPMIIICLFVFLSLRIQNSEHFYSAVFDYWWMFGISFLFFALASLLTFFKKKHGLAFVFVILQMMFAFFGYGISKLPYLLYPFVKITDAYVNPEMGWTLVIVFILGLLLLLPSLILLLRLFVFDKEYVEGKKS
T1 sequence (P0AC44 whole entry): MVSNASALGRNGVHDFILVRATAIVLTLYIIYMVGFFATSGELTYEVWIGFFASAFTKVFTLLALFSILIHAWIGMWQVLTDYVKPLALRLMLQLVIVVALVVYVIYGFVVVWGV
T1 sequence (P07014 whole entry): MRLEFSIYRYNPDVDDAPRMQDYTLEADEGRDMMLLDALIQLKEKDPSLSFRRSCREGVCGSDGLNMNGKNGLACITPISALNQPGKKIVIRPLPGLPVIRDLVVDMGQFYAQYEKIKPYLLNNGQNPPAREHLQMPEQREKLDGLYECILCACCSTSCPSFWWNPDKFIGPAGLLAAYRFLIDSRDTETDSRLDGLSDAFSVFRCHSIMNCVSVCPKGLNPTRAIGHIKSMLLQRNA
T1 sequence (P0AC41 whole entry): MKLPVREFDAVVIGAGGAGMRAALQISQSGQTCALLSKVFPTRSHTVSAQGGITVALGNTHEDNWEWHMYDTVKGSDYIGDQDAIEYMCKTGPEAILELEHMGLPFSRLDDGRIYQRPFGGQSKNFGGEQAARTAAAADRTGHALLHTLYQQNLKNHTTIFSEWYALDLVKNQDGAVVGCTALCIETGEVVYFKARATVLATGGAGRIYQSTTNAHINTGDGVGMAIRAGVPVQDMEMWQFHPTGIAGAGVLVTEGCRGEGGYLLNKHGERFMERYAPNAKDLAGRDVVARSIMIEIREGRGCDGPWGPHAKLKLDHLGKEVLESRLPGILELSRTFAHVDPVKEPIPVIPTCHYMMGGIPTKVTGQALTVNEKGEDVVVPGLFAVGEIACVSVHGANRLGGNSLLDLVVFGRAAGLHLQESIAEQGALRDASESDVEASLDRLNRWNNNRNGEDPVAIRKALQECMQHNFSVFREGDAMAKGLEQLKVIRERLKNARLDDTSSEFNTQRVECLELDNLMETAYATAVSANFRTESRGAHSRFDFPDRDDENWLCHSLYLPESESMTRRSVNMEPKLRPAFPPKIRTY
T1 sequence (P69054 whole entry): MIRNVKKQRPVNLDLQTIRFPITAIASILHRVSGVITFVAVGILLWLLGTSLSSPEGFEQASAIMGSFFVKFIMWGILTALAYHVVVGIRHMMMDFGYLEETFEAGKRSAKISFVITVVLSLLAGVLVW

Molecule: C#C[C@]1(O)CC[C@H]2[C@@H]3CCc4cc(OC5CCCC5)ccc4[C@H]3CC[C@@]21C [Quinestrol]
- IC50 [1]: 2.2 µg/mL and 6 µM
- IC50 [2]: 0.1 µg/mL and 300 nM
- Growth inhibition (in words) [3]: inhibit the growth
- IC50 ([4]; Staphylococcus aureus, read-out: IC50 growth, MRSA WT, TSB medium): 9.8 µg/mL and 27 µM
- IC50 ([4]; read-out: IC50 growth, MRSA WT, TSB medium): 26.9 µM
- IC50 [5]: 0.06 µg/mL and 200 nM
- Succinate dehydrogenase activity (in words) [6]: does not inhibit succinate dehydrogenase activity
- Inhibition of oxygen consumption [7]: 4 fold
- IC50 [7]: 0.549 µM and 0.5 µM
- Residual oxygen consumption activity ([7]; at higher concentrations): around 20%
- Growth inhibition (in words) [8]: not gram-negative species
- Bactericidal activity (in words) [9]: no killing effects
- CC50 [10]: 24.7 ± 1.6 µM
- Bactericidal activity (in words) [11]: not lethal
- Bactericidal activity (in words) ([11]; listed as quinestrol): did not kill; also recorded: completely resistant to killing
- IC50 [12]: 5.7 µg/mL and 15.6 µM
- IC50 [13]: 0.1 µg/mL and 300 nM
- CC50 [14]: 3.4 ± 0.7 µg/mL (≈ 9.33 µM)
- IC50 [15]: 2690 nM
- CC50 [16]: 5.6 ± 0.3 µg/mL (≈ 15.4 µM)
- Growth inhibition (in words) [17]: inhibit the growth
- Bactericidal activity (in words) [18]: no killing effects

Molecule: CCn1c(C(=O)O)c(CNCCc2ccc(Cl)cc2)c2ccccc21 [MQL-H2, 3-[[2-(4-chlorophenyl)ethylamino]methyl]-1-ethyl-indole-2-carboxylic]
- IC50 [19]: 34 µM

Molecule: cathelicidin LL-37
- IC50 (in words) [20]: µM range

Molecule: gramicidin S
- IC50 (in words) [21]: µM range

Molecule: microcin J25 (GGAGHVPEYFVGIGTPISFYG; ends and bridges not checked; UniProt Q9X2V7 38-58, looked up)
- IC50 (in words) [20]: µM range

Molecule: C#C[C@]1(O)CC[C@H]2[C@@H]3CCc4cc(OC)ccc4[C@H]3CC[C@@]21C [Mestranol]
- Effect on oxygen consumption (in words) [7]: did not diminish oxygen consumption
- Effect on oxygen consumption (in words) ([7]; listed as mestranol): no inhibitory effects

Molecule: C#C[C@]1(O)CC[C@H]2[C@@H]3CCc4cc(O)ccc4[C@H]3CC[C@@]21C [Ethinyl estradiol]
- Inhibition of oxygen consumption [7]: 2 fold
- IC50 [7]: 159 µM and 158 µM
